Results taken from US20090214420A1, “Method of Diagnosis and Treatment and Agents Useful for Same” (MEDVET SCIENCE PTY. LTD., priority 2005, published 2009).
“Also recorded” adds a separate entry of the source.

Tests used:
Assay type in all cases: cell-based, human
[1] = tested on: Jurkat cells; assay: Flow cytometry (PI, La, hTERT, TRF2 staining) of Jurkat cells after cytotoxic treatment; conditions: FIG. 4B; for hTERT staining of Jurkat cells: 48 h treatment, only in PI high cells
Procedure: (§1) FIG. 4 is a graphical representation of the cytotoxic treatment of malignant human cells results in increased expression of TRF2 and La in apoptotic cells 24 h after treatment and in increased expression of hTERT in apoptotic cells 48 h after treatment. A. Jurkat cells after 24 h treatment with cytotoxic agents. […] B. Jurkat cells after 48 h treatment with cytotoxic agents. […] C. Raji cells after 24 h treatment with cytotoxic agents. […] D. Jurkat cells after 24 h treatment with cytotoxic agents. […] E. Jurkat cells after 48 h treatment with cytotoxic agents. Staining for La (3B9-F1TC) and TRF2 in apoptotic cells was more evident 48 h after treatment with all cytotoxic agents. F. Raji cells after 48 h treatment with cytotoxic agents. […] G. HeLa cells after 48 h treatment with cytotoxic agents. […] In each case, the staining is indicated above each column of panels and the cytotoxic employed is indicated to the left of each row of panels. Also indicated is a PI only control and negative controls for hTERT staining (purified rat IgG or anti-rat secondary antibody alone) and for TRF2 staining (purified mouse IgG or anti-mouse secondary antibody alone).
(§2) The Jurkat and Raji cell lines were cultured in RPMI supplemented with 10% FCS, 50 U/mL penicillin and 50 μg/mL streptomycin sulphate and the U2OS and HeLa cell lines were cultured in DMEM supplemented with 10% FCS, 50 U/mL penicillin and 50 μg/mL streptomycin sulphate (JRH Laboratories). The cell lines were treated for 24 or 48-hour periods with various cytotoxic agents as follows: Jurkat and Raji cells with etoposide, 20 μg/mL; HeLa and U2OS cells with cisplatin, 1 μg/mL, and vincristine, 0.1 μg/mL; Jurkat, HeLa and U2OS cells with 0.5 μM STS, and Raji cells with 2 μM STS. The treated cells were stained with propidium iodide (PI) (Sigma) 0.5 μg/mL and FITC-conjugated Sal5 or 3B9 mAb, or mouse anti-TRF2 mAb (clone 36, Becton-Dickinson) and then secondary antibody, anti mouse FITC (Chemicon, Temecula, Calif., USA), or rat anti-hTERT mAb (clone 36-10, Alexis Biochemicals) and then secondary antibody, anti rat FITC (Caltag, Burlingame, Calif., USA). Purified mouse IgG or rat IgG (Institute of Medical and Veterinary Science, Adelaide, Australia) were used as negative controls for TRF2 and hTERT staining, respectively. To further improve the method for detection of hTERT for later use in whole blood staining, which appeared to have been hindered by the presence of autofluorescence presumably emanating from red blood cells, anti-hTERT monoclonal antibody clone 36-10 was conjugated directly to AlexaFluor350 (Molecular Probes), which is excited at 355 nm and emits maximally between 420-460 nm. Anti-hTERT-Alexa350 was combined with the EpCAM monoclonal antibody (BD Biosciences), which is conjugated to PE that excites at 488 nm and emits 560-590 nm, and the nuclear impermeant DNA-binding dye TOPRO-3 (Molecular Probes), which excites at 560 nm and emits maximally in the far red region (>650 nm).
The human T cell leukemia cell line, Jurkat, and the human B lymphoma cell line, Raji, were treated for 24 or 48 hour periods with the following cytotoxic agents: staurosporine, which is a pan-kinase inhibitor, etoposide, which is a topoisomerase II inhibitor, vincristine, which is a microtubule depolymerising agent and cisplatin, which is a DNA cross linking agent. Cells were then stained with propidium iodide (PI) and the anti-La monoclonal antibody (mAb), 3B9, or its isotype control, Sal5, or with mAbs specific for hTERT or TRF2. As negative controls for staining with the hTERT- or TRF2-specific mAbs, rat IgG and anti-rat secondary antibody or mouse IgG and anti-mouse secondary antibody, respectively, were used.

[2] = tested on: Raji cells; assay: Flow cytometry (PI, La, hTERT, TRF2 staining) of Raji cells after cytotoxic treatment; conditions: for TRF2 staining of Raji cells: 48 hours, FIG. 4F
Procedure: as §1
as §2, with “Anti-hTERT-Alexa350 was combined with the EpCAM monoclonal antibody (BD Biosciences), which is conjugated to PE that excites at 488 nm and emits 560-590 nm, and the nuclear impermeant DNA-binding dye TOPRO-3 (Molecular Probes), which excites at 560 nm and emits maximally in the far red region (>650 nm).” left out

[3] = tested on: HeLa cells; assay: Flow cytometry (PI, La, hTERT, TRF2 staining) of HeLa cells after cytotoxic treatment; conditions: FIG. 4G; for apoptosis and La staining in HeLa cells: 48 h treatment
Procedure: as §1, §2
Similarly, TRF2 staining of PI^+ dead Jurkat cells was evident as soon as 24 hours after cytotoxic treatment (FIG. 4D) and 48 hours afterwards (F1G. 4E). […] In contrast, it took 48 hours after treatment with cisplatin, etoposide and vincristine for hTERT staining of PI^+ dead Jurkat cells to be evident (arrows, FIG. 4B). hTERT staining of PI^+ dead Raji cells was evident 48 hours after treatment with vincristine (arrow, FIG. 4C). As additional controls, the telomerase-expressing human cervical carcinoma cell line, HeLa, and the telomerase-negative human osteosarcoma cell line, U2OS (M Frolkis et al. Cancer Gene Therapy 10, 239-249, 2003), were also treated with staurosporine, vincristine and etoposide and analysed by flow cytometry 48 hours after treatment.

[4] = tested on: U2OS cells; assay: Flow cytometry (PI, La, hTERT, TRF2 staining) of U2OS cells after cytotoxic treatment; conditions: FIG. 4H
Procedure: as §1, §2
Similarly, TRF2 staining of PI^+ dead Jurkat cells was evident as soon as 24 hours after cytotoxic treatment (FIG. 4D) and 48 hours afterwards (F1G. 4E). […] As additional controls, the telomerase-expressing human cervical carcinoma cell line, HeLa, and the telomerase-negative human osteosarcoma cell line, U2OS (M Frolkis et al. Cancer Gene Therapy 10, 239-249, 2003), were also treated with staurosporine, vincristine and etoposide and analysed by flow cytometry 48 hours after treatment.

[5] = tested on: H69 cells; assay: BerEP4-FITC / PI staining of etoposide-treated H69 cells; conditions: 48 hours
Procedure: FIG. 8 is a graphical representation of the staining of H69 cells using the anti-epithelial marker monoclonal antibody BerEP4-FITC. H69 cells (1×10^6 cells/mL) were cultured in RPMI-1640 containing 5% FCS in the absence or presence of the specified concentrations of etoposide (0-400 μg/mL). After 48 hours of incubation, cells were collected and incubated at room temperature for 15 minutes with (A) 5 μg/mL BerEP4-FITC or (B) 5 μg/mL mouse IgG2aκ-FITC isotype. Cells were washed and pellets were resuspended in 0.5 μg/mL solution of PI in PBS then analysed by flow cytometry.

[6] = tested on: U2OS cells; assay: Viability analysis using trypan blue staining after induction of apoptosis, U2OS cells; conditions: 0.5 μM staurosporine
Procedure: (§3) Jurkat cells (ATCC #TIB-152) were maintained in RPMI 1640 supplemented with 5% fetal calf serum (FCS). U2OS cells (ATCC #HTB-96) were maintained in DMEM supplemented with 5% FCS and passaged every 48-72 hours after detachment with Trypsin EDTA. Jurkat cells express telomerase and thus have the integral RNA component, hTR, whereas U2OS cells lack telomerase and hTR. Apoptosis was induced by the addition of 0.5 μM staurosporine to the culture media for 24, 48 or 72 hours.
(§4) The RNA for hTR was not detected in the hTR-negative U2OS cells but was detected in the hTR-positive Jurkat cells 24, 48 and 72 hours after the induction of apoptosis.

[7] = tested on: Jurkat cells; assay: Viability analysis using trypan blue staining after induction of apoptosis, Jurkat cells; conditions: 0.5 μM staurosporine
Procedure: as §3, §4

[8] = tested on: PBMC; assay: hTERT / 7-AAD staining of PBMC after staurosporine-induced apoptosis; conditions: 24 hours after induction of apoptosis, 1 μM staurosporine, FIG. 5
Procedure: (§5) FIG. 5 is a graphical representation of the culturing of PMBC with conconavalin A (conA) 10 μg/mL for 72 h. Viable cells were obtained by density gradient centrifugation and then apoptosis was induced using 1 μM staurosporine for 24 h. Jurkat cells were also treated with 1 μM staurosporine for 24 h. Dot plots depict staining for 7-AAD and hTERT. The negative control is staining with the secondary antibody alone.
(§6) Peripheral blood mononuclear cells (PBMC) were prepared from a buffy coat of a discarded unit of whole blood that had been obtained from the South Australian Red Cross Blood Bank. Initially, PBMC had been separated by density gradient centrifugation over Lymphoprep (Axis-Shield, Dundee, UK) and frozen in aliquots using a controlled rate freezer. […]
(§7) After treatment, all cells were harvested, washed in PBS and stained with 7-amino actinomycin D (7-AAD) (2 μg/mL) and anti-La 3B9 mAb or its isotype control mAb, Sal5, and then with the secondary anti-mouse antibody conjugated to R-phycoerythrin (Zymed, San Francisco, Calif., USA), or with rat anti-hTERT mAb (Alexis Biochemicals, San Diego, Calif., USA) and then with the secondary anti-rat antibody conjugated to FITC (Chemicon). Cells were analysed using a FACScan (Becton Dickinson, Franklin Lakes, N.J., USA) and the results analysed with WinMDI v2.8 software.

[9] = tested on: Jurkat cells; assay: hTERT / 7-AAD staining of Jurkat cells after staurosporine-induced apoptosis; conditions: 24 hours after induction of apoptosis, 1 μM staurosporine, FIG. 5
Procedure: as §5, §6, §7

Compound | hTERT staining of Jurkat cells [1] | time after treatment for hTERT staining of PI+ dead Jurkat cells to be evident [1] [h] | TRF2 staining of Raji cells [2] | hTERT staining of PI+ dead HeLa cells ([3]; 48 hours after treatment) | apoptosis and La staining in HeLa cells [3] | hTERT staining of PI+ dead U2OS cells ([4]; 48 hours after treatment) | further results
N.N.[Cl][Pt][Cl] [cisplatin] | increased staining for hTERT | 48 | slightly increased staining; also recorded: increased TRF2 staining |  |  |  | 
COc1cc([C@@H]2c3cc4c(cc3[C@@H](O[C@@H]3O[C@@H]5CO[C@@H](C)O[C@H]5[C@H](O)[C@H]3O)[C@H]3COC(=O)[C@H]23)OCO4)cc(OC)c1O [etoposide] | increased staining for hTERT | 48 |  | Evident staining; also recorded: staining for hTERT | induced apoptosis | not | TRF2 staining of PI+ dead HeLa cells ([3]; 48 hours after treatment): Evident staining; also recorded: little staining for TRF2; etoposide concentration giving maximal proportion of dead (BerEP4+ PI+) H69 carcinoma cells ([5]; FIG. 8A): 200 to 400 µg/mL; extent of cell death of H69 cells ([5]; etoposide 0-400 μg/mL, FIG. 8): dose-dependent
CN[C@@H]1C[C@H]2O[C@@](C)([C@@H]1OC)n1c3ccccc3c3c4c(c5c6ccccc6n2c5c31)C(=O)NC4 [staurosporine] |  |  |  | Evident staining; also recorded: staining for hTERT | induced apoptosis | not and no corresponding staining | U2OS cells dead (trypan blue) ([6]; 24 hours): 36%; U2OS cells dead (trypan blue) ([6]; 48 hours): 95%; U2OS cells dead (trypan blue) ([6]; 72 hours): 100%; Jurkat cells dead (trypan blue) ([7]; 24 hours): 40%; Jurkat cells dead (trypan blue) ([7]; 48 hours): 85%; Jurkat cells dead (trypan blue) ([7]; 72 hours): 100%; TRF2 staining of PI+ dead U2OS cells ([4]; 48 hours after treatment): no corresponding staining; apoptosis and La staining in U2OS cells ([4]; 48 h treatment): induced apoptosis; telomerase expression in dead PBMC [8]: little if any; telomerase expression in Jurkat cells [9]: little if any
CC[C@]1(O)C[C@H]2CN(CCc3c([nH]c4ccccc34)[C@@](C(=O)OC)(c3cc4c(cc3OC)N(C=O)[C@H]3[C@@](O)(C(=O)OC)[C@H](OC(C)=O)[C@]5(CC)C=CCN6CC[C@]43[C@@H]65)C2)C1 [vincristine] | increased staining for hTERT | 48 | slightly increased staining; also recorded: increased TRF2 staining | Evident staining; also recorded: staining for hTERT | induced apoptosis | not | hTERT staining of Raji cells ([2]; 24 h treatment (legend FIG. 4C)): marginally increased staining; hTERT staining of PI+ dead Raji cells ([2]; 48 hours after treatment (text, FIG. 4C)): evident
